According to patent US8846656B2, “Tetrahydropyrido-pyridine and tetrahydropyrido-pyrimidine compounds and use thereof as C5a receptor modulators” (Novartis AG, priority 2011, dated 2014):
Where “and” joins values, the source holds several entries; their conditions need not be identical. Equal entries are not always repeated. Where two headings read alike, the source gives them in different places.

Tests used:
[1] = molecular target: human C5aR (Homo sapiens (Human), UniProt P21730); test: FLIPR assay: inhibition of C5a-mediated calcium mobilization; assay type: cell-based; settings: stable cell line over expressing human C5aR & Gα15, human C5a at EC50 (0.1-0.25 nM)
Description: Compounds were tested for their ability to inhibit C5a-mediated calcium mobilization using a stable cell line over expressing the human C5aR & the Gα15 protein on the FLIPR (Fluorescent Imaging Plate Reader) Tetra system. Cells were maintained in culture media containing DMEM (Dulbecco's Modified Eagle Medium) with 4.5 g/L glucose, 10% fetal bovine serum, 100 U/mL, 1× non-essential amino acid, and 250 μg/mL G418 (Geneticin). Prior to testing of compounds, cells were plated at 10,000 cells/well in clear bottom 384-well black plate, and incubated overnight at 37° C. with 5% CO2. On the day of experiment, culture media was removed, and replaced with assay buffer HBSS (Hanks' Balanced Salt Solution) with 20 mM HEPES (4-(2-hydroxyethyl)-1-piperazineethanesulfonic acid) and 0.1% BSA (bovine serum albumin) BSA containing calcium 5 dye (Molecular Devices) and 2.5 mM probenecid. After 1 hour incubation at 37° C., 5% CO2 for 60 min, cells were pre-incubated with compounds for 30 minutes at room temperature, in 1% DMSO (dimethyl sulfoxide).

[2] = tested on: CD11b; test: Human whole blood CD11b up-regulation assay; assay type: cell-based; settings: 2 nM human C5a, CD15+ granulocytes, read-out: hCD11b IC50
Description: Whole blood was collected in sodium heparin tubes and the assay started within 2 hours of the blood draw. The blood was incubated with compounds in 1% DMSO (dimethyl sulfoxide) at room temperature for 10 minutes with gentle rocking. 2 nM of human C5a was then added for 15 minutes at room temperature with gentle rocking. Following the C5a incubation period cells were washed once with cold FACS (fluorescence-activated cell sorting) buffer (phosphate buffered saline+0.5% bovine serum albumin) FITC (fluorescein isothiocyanate) mouse anti-human CD15 and PE-Cy5 (phycoerythrin-cyanine 5) mouse anti-human CD11b antibodies (Becton Dickinson) were gently mixed with the cells and allowed to incubate for 30 minutes on ice protected from the light. Cells were then washed three times with cold FACS buffer. Red blood cells (RBC) were lysed by incubating with BD FACS lysis buffer (Becton Dickinson) for 10 minutes at room temperature. Cells were pelleted and the lysing procedure was repeated until all RBCs were lysed. The remaining leukocytes were resuspended in BD lysis buffer. Samples were acquired on the LSR^11 flow cytometer and 10,000 events of the CD15+ granulocyte population were collected. The CD11b median fluorescence intensity of the CD 15+ cell population was evaluated using FACSDiva software (Becton Dickinson).

Chain of human C5aR (P21730 whole entry): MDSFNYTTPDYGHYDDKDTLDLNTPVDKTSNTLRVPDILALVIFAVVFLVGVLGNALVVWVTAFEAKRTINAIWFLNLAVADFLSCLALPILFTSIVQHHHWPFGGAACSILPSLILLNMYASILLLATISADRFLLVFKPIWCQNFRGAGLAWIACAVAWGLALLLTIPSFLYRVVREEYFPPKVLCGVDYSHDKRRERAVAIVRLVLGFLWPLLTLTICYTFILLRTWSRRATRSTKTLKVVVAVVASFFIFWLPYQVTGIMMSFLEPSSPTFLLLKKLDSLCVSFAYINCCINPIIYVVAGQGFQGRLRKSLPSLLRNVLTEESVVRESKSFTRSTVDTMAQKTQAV

## Cc1ccc(C(C)C)cc1N1CCc2nc(-c3cccc4[nH]cc(C)c34)nc(N3CC[C@H](O)[C@H](C)C3)c2C1 (racemic) [Example 17-AN, racemic-1-(6-(5-isopropyl-2-methylphenyl)-2-(3-methyl-1H-indol-4-yl)-5,6,7,8-tetrahydropyrido[4,3-d]pyrimidin-4-yl)-3-methylpiperidin-4-ol]
[1]
  IC50: 31 nM
[2]; Homo sapiens
  IC50: 423 nM

## CO[C@H]1CCN(c2nc(-c3cccc4[nH]cc(C)c34)nc3c2CN(c2cc(C(C)C)ccc2C)CC3)C[C@H]1C (racemic) [Example 17-AQ, racemic 6-(5-isopropyl-2-methylphenyl)-4-(4-methoxy-3-methylpiperidin-1-yl)-2-(3-methyl-1H-indol-4-yl)-5,6,7,8-tetrahydropyrido[4,3-d]pyrimidine]
[1]
  IC50: 16 nM
[2]; Homo sapiens
  IC50: 277 nM

## Cc1ccc2[nH]nc(C)c2c1-c1nc2c(c(N3CC[C@@H]4OC[C@]4(C)C3)n1)CN(c1c(Cl)c(C3CC3)nn1C)CC2 (racemic) [Example 69-L, (1S*,6S*)-3-(6-(4-chloro-3-cyclopropyl-1-methyl-1H-pyrazol-5-yl)-2-(3,5-dimethyl-1H-indazol-4-yl)-5,6,7,8-tetrahydropyrido[4,3-d]pyrimidin-4-yl)-1-methyl-7-oxa-3-azabicyclo[4.2.0]octane]
[2]; Homo sapiens
  IC50: 54 nM

## CCn1nc(C2CC2)c(Cl)c1N1CCc2nc(-c3c(C)ccc4[nH]nc(C)c34)nc(N3CCC3C)c2C1 (single isomer, unassigned) [Example 70-H, 6-(4-chloro-3-cyclopropyl-1-ethyl-1H-pyrazol-5-yl)-2-(3,5-dimethyl-1H-indazol-4-yl)-4-(2-methylazetidin-1-yl)-5,6,7,8-tetrahydropyrido[4,3-d]pyrimidine]
[2]; Homo sapiens
  IC50: 41 nM

## CCn1nc(C2CC2)c(Cl)c1N1CCc2nc(-c3c(C)ccc4[nH]nc(C)c34)nc(N3CCC3C)c2C1 (single isomer, unassigned) [Example 70-I, 6-(4-chloro-3-cyclopropyl-1-ethyl-1H-pyrazol-5-yl)-2-(3,5-dimethyl-1H-indazol-4-yl)-4-(2-methylazetidin-1-yl)-5,6,7,8-tetrahydropyrido[4,3-d]pyrimidine]
[2]
  IC50: 38 nM

## Cc1ccc(C(C)C)cc1N1CCc2nc(-c3c(C)ccc4[nH]ncc34)cc(C)c2C1 [Example 41-D, 6-(5-Isopropyl-2-methylphenyl)-4-methyl-2-(5-methyl-1H-indazol-4-yl)-5,6,7,8-tetrahydro-1,6-naphthyridine]
[2]; Homo sapiens
  IC50: 153 nM

## [2H]C1([2H])c2c(C)cc(-c3c(CC)cccc3CC)nc2CC(C)N1c1cc(C2CC2)nn1C (stereo not shown) [Example 42-H, 6-(3-cyclopropyl-1-methyl-1H-pyrazol-5-yl)-2-(2,6-diethylphenyl)-4,7-dimethyl-5,6,7,8-tetrahydro(5,5-^2H2)-1,6-naphthyridine]
[1]
  IC50: 58 nM

## [2H]C1([2H])c2c(C)cc(-c3c(C)ccc4[nH]ncc34)nc2CCN1c1cc(C(C)C)ccc1C [Example 43-A, 6-(5-Isopropyl-2-methylphenyl)-4-methyl-2-(5-methyl-1H-indazol-4-yl)-5,6,7,8-tetrahydro(5,5-^2H2)-1,6-naphthyridine]
[2]; Homo sapiens
  IC50: 178 nM

## [2H]C1([2H])c2c(C)cc(-c3c(C)cnc4[nH]ccc34)nc2CCN1c1cc(C(C)C)ccc1C [Example 43-D, 6-(5-isopropyl-2-methylphenyl)-4-methyl-2-(5-methyl-1H-pyrrolo[2,3-b]pyridin-4-yl)-5,6,7,8-tetrahydro(5,5-^2H2)-1,6-naphthyridine]
[1]
  IC50: 802 nM

## [2H]C1([2H])c2c(C)cc(-c3c(CC)cccc3CC)nc2CCN1c1c(C)ccnc1C [Example 44-D, 2-(2,6-Diethylphenyl)-6-(2,4-dimethylpyridin-3-yl)-4-methyl-5,6,7,8-tetrahydro(5,5-^2H2)-1,6-naphthyridine]
[1]
  IC50: 131 nM

## COc1ccc(C)c(N2CCc3nc(-c4c(C)ccc5[nH]ncc45)cc(C)c3C2)c1 [Example 46-C]
[1]
  IC50: 25 nM

## CCc1cccc(CC)c1-c1cc(C)c2c(n1)CCN(c1nnnn1C)C2 [Example 48, 2-(2,6-Diethylphenyl)-4-methyl-6-(1-methyl-1H-tetrazol-5-yl)-5,6,7,8-tetrahydro-1,6-naphthyridine]
[1]
  IC50: 198 nM

## COCCN(C)c1cc(-c2c(C)cccc2C)nc2c1C(=O)N(c1cc(C(C)C)ccc1C)CC2 [Example 50-E, 2-(2,6-dimethylphenyl)-6-(5-isopropyl-2-methylphenyl)-4-((2-methoxyethyl)(methyl)amino)-7,8-dihydro-1,6-naphthyridin-5(6H)-one]
[1]
  IC50: 790 nM

## COCCN(C)c1cc(-c2c(C)cccc2C)nc2c1CN(c1cc(C(C)C)ccc1C)CC2 [Example 51-D, 2-(2,6-dimethylphenyl)-6-(5-isopropyl-2-methylphenyl)-N-(2-methoxyethyl)-N-methyl-5,6,7,8-tetrahydro-1,6-naphthyridin-4-amine]
[1]
  IC50: 197 nM

## CC(=O)N1CCN(c2nc(-c3cccc4[nH]cc(C)c34)nc3c2CN(c2cc(C(C)C)ccc2C)CC3)CC12CC2 [Example 53, 1-(7-(6-(5-Isopropyl-2-methylphenyl)-2-(3-methyl-1H-indol-4-yl)-5,6,7,8-tetrahydropyrido[4,3-d]pyrimidin-4-yl)-4,7-diazaspiro[2.5]octan-4-yl)ethanone]
[1]
  IC50: 18 nM

## CO[C@@H]1CCN(c2nc(-c3c(C)ccc4[nH]nc(C)c34)nc3c2CN(c2c(Cl)c(C4CC4)nn2C)CC3)CC1(C)C [Example 55-G, (R)-6-(4-Chloro-3-cyclopropyl-1-methyl-1H-pyrazol-5-yl)-2-(3,5-dimethyl-1H-indazol-4-yl)-4-(4-methoxy-3,3-dimethylpiperidin-1-yl)-5,6,7,8-tetrahydropyrido[4,3-d]pyrimidine]
[1]
  IC50: 4 nM and 2 nM

## CO[C@@H]1CCN(c2nc(-c3c(C)ccc4[nH]nc(C)c34)nc3c2CN(c2c(Cl)c(C(F)F)nn2C)CC3)CC1(C)C [Example 55-I, (R)-6-(4-chloro-3-(difluoromethyl)-1-methyl-1H-pyrazol-5-yl)-2-(3,5-dimethyl-1H-indazol-4-yl)-4-(4-methoxy-3,3-dimethylpiperidin-1-yl)-5,6,7,8-tetrahydropyrido[4,3-d]pyrimidine]
[1]
  IC50: 1 nM

## CCO[C@@H]1CCN(c2nc(-c3c(C)ccc4[nH]nc(C)c34)nc3c2CN(c2c(Cl)c(C4CC4)nn2C)CC3)[C@H](C)C1 [Example 55-J, 6-(4-chloro-3-cyclopropyl-1-methyl-1H-pyrazol-5-yl)-2-(3,5-dimethyl-1H-indazol-4-yl)-4-((2R,4R)-4-ethoxy-2-methylpiperidin-1-yl)-5,6,7,8-tetrahydropyrido[4,3-d]pyrimidine]
[1]
  IC50: 5 nM

## CCO[C@@H]1CCN(c2nc(-c3c(C)ccc4[nH]nc(C)c34)nc3c2CN(c2c(F)c(C4CC4)nn2C)CC3)CC1(C)C [Example 56-E, (R)-6-(3-cyclopropyl-4-fluoro-1-methyl-1H-pyrazol-5-yl)-2-(3,5-dimethyl-1H-indazol-4-yl)-4-(4-ethoxy-3,3-dimethylpiperidin-1-yl)-5,6,7,8-tetrahydropyrido[4,3-d]pyrimidine]
[1]
  IC50: 2 nM

## Cc1ccc2[nH]nc(C)c2c1-c1nc2c(c(N3CCOC[C@H]3C)n1)CN(c1c(F)c(C3CC3)nn1C)CC2 [Example 76-C, (R)-4-(6-(3-Cyclopropyl-4-fluoro-1-methyl-1H-pyrazol-5-yl)-2-(3,5-dimethyl-1H-indazol-4-yl)-5,6,7,8-tetrahydropyrido[4,3-d]pyrimidin-4-yl)-3-methylmorpholine]
[2]; Homo sapiens
  IC50: 46 nM
